Source: US11426397B2, “Piperidinyl- and piperazinyl-substituted heteroaromatic carboxamides as modulators of GPR6” (TAKEDA PHARMACEUTICAL COMPANY LIMITED, priority 2017, dated 2022)

target: T1, GPR6 receptor expressed in CHO-K1 cells (Homo sapiens, UniProt P46095); test: In vitro inhibition of cAMP (EC50), cell-based HTRF cAMP assay; settings: inhibition of constitutive cAMP activity of GPR6 in CHO-K1 cells
T1 construct: expressed in transfected cells
Method in brief: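 Tetracycline-inducible CHO-K1 line, GPR6 expression induced 20 h with 2 μg/mL doxycycline. Compounds incubated 45 min at 37 °C in Ringer's buffer (pH 7.4) with 0.5% fatty acid free BSA and 300 μM IBMX. Constitutive cAMP read by Lance HTRF; EC50 from four-parameter logistic fit.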

T1 sequence (P46095 whole entry): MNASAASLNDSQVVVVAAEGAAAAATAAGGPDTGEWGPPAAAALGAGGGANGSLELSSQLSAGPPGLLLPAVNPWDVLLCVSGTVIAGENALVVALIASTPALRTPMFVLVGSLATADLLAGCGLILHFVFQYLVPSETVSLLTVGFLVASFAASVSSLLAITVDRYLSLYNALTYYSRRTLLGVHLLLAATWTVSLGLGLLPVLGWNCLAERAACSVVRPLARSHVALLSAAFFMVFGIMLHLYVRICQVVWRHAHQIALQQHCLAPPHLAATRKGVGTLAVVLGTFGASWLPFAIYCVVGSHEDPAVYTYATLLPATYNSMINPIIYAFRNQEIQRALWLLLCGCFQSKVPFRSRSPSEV

Compound | pEC50, in vitro inhibition of cAMP
N#Cc1ccc(N2CCC(Oc3ccc(F)cc3F)CC2)c(NC(=O)c2cnccn2)c1 [Example 44, N-(5-cyano-2-(4-(2,4-difluorophenoxy)piperidin-1-yl)phenyl)pyrazine-2-carboxamide] | 6.2
COc1ncccc1C(=O)Nc1cc(C#N)cnc1N1CCC(Oc2ccc(F)cc2F)CC1 [Example 63, N-(5-cyano-2-(4-(2,4-difluorophenoxy)piperidin-1-yl)pyridin-3-yl)-2-methoxynicotinamide] | 7.1
Cc1nccc(C(=O)Nc2cc(C#N)ccc2N2CCC(Oc3ccc(F)cc3F)CC2)n1 [Example 141, N-(5-cyano-2-(4-(2,4-difluorophenoxy)piperidin-1-yl)phenyl)-2-methylpyrimidine-4-carboxamide] | 7.2
COc1cnc(C(=O)Nc2cnc(C)cc2N2CCC(Oc3ccc(F)cc3F)CC2)cn1 [Example 142, N-(4-(4-(2,4-difluorophenoxy)piperidin-1-yl)-6-methylpyridin-3-yl)-5-methoxypyrazine-2-carboxamide] | 6.2
Cc1ccc(NC(=O)c2cc(F)cnc2O)c(N2CCN(Cc3ccc(F)cc3)CC2)n1 [Example 101, 5-fluoro-N-(2-(4-(4-fluorobenzyl)piperazin-1-yl)-6-methylpyridin-3-yl)-2-hydroxynicotinamide] | 5.9
COc1ncccc1C(=O)Nc1cc(C#N)ccc1N1CCN(C(=O)c2ccc(F)cc2F)CC1 [Example 93, N-(5-cyano-2-(4-(2,4-difluorobenzoyl)piperazin-1-yl)phenyl)-2-methoxynicotinamide] | 6.3
COc1ncc(F)cc1C(=O)Nc1ccc(C)nc1N1CCN(Cc2ccc(F)cc2)CC1 [Example 100, 5-fluoro-N-(2-(4-(4-fluorobenzyl)piperazin-1-yl)-6-methylpyridin-3-yl)-2-methoxynicotinamide] | 6.8
N#Cc1ccc(N2CCC(Oc3ccc(F)cc3F)CC2)c(NC(=O)c2cccn(Cc3ccccn3)c2=O)c1 [Example 203, N-(5-cyano-2-(4-(2,4-difluorophenoxy)piperidin-1-yl)phenyl)-2-oxo-1-(pyridin-2-ylmethyl)-1,2-dihydropyridine-3-carboxamide] | 5.6
COc1cscc1C(=O)Nc1cc(C#N)ccc1N1CCC(Oc2ccc(F)cc2F)CC1 [Example 47, N-(5-cyano-2-(4-(2,4-difluorophenoxy)piperidin-1-yl)phenyl)-4-methoxythiophene-3-carboxamide] | 7.2
N#Cc1ccc(N2CCC(Oc3ccc(F)cc3F)CC2)c(NC(=O)c2cc3cccn3cn2)c1 [Example 48, N-(5-cyano-2-(4-(2,4-difluorophenoxy)piperidin-1-yl)phenyl)pyrrolo[1,2-c]pyrimidine-3-carboxamide] | 6.8
COc1ccncc1C(=O)Nc1cc(C)cnc1N1CCC(Oc2ccc(F)cc2F)CC1 [Example 35, N-(2-(4-(2,4-difluorophenoxy)piperidin-1-yl)-5-methylpyridin-3-yl)-4-methoxynicotinamide] | 7.4
Cc1cncc(C(=O)Nc2cc(C#N)ccc2N2CCC(Oc3ccc(F)cc3F)CC2)n1 [Example 130, N-(5-cyano-2-(4-(2,4-difluorophenoxy)piperidin-1-yl)phenyl)-6-methylpyrazine-2-carboxamide] | 7.1
COc1ccc(C(=O)Nc2cc(C#N)ccc2N2CCC(Oc3ccc(F)cc3F)CC2)nn1 [Example 136, N-(5-cyano-2-(4-(2,4-difluorophenoxy)piperidin-1-yl)phenyl)-6-methoxypyridazine-3-carboxamide] | 6.8
Cc1ccc(Cl)c(OC2CCN(c3ncc(C#N)cc3NC(=O)c3ccccn3)CC2)c1 [Example 68, N-(2-(4-(2-chloro-5-methylphenoxy)piperidin-1-yl)-5-cyanopyridin-3-yl)picolinamide] | 6.6

The remaining lines, values ahead:

pEC50, in vitro inhibition of cAMP | Compound
6.7 | COc1nn(C)cc1C(=O)Nc1cc(C#N)cnc1N1CCN(Cc2cccc(OC(F)(F)F)c2)CC1 [Example 165, N-(5-cyano-2-(4-(3-(trifluoromethoxy)benzyl)piperazin-1-yl)pyridin-3-yl)-3-methoxy-1-methyl-1H-pyrazole-4-carboxamide]
7.0 | COc1ncccc1C(=O)Nc1cc(C#N)ccc1N1CCN(Cc2ccccc2C#N)CC1 [Example 245, N-(5-cyano-2-(4-(2-cyanobenzyl)piperazin-1-yl)phenyl)-2-methoxynicotinamide]
5.1 | COc1c(Cl)ccc(Cl)c1C(=O)Nc1cc(C#N)ccc1N1CCC(Oc2ccc(F)cc2F)CC1 [Example 206, 3,6-dichloro-N-(5-cyano-2-(4-(2,4-difluorophenoxy)piperidin-1-yl)phenyl)-2-methoxybenzamide]
6.5 | COc1ncccc1C(=O)Nc1cc(C#N)ccc1N1CCN(Cc2cccc(F)c2F)CC1 [Example 243, N-(5-cyano-2-(4-(2,3-difluorobenzyl)piperazin-1-yl)phenyl)-2-methoxynicotinamide]
6.6 | Cc1cccc2ncc(C(=O)Nc3cc(C#N)ccc3N3CCC(Oc4ccc(F)cc4F)CC3)c(=O)n12 [Example 187, N-(5-cyano-2-(4-(2,4-difluorophenoxy)piperidin-1-yl)phenyl)-6-methyl-4-oxo-4H-pyrido[1,2-a]pyrimidine-3-carboxamide]
6.7 | Cc1cn2c(=O)c(C(=O)Nc3cc(C#N)ccc3N3CCC(Oc4ccc(F)cc4F)CC3)cnc2s1 [Example 217, N-(5-cyano-2-(4-(2,4-difluorophenoxy)piperidin-1-yl)phenyl)-2-methyl-5-oxo-5H-thiazolo[3,2-a]pyrimidine-6-carboxamide]
6.8 | COc1c(F)cc(F)cc1C(=O)Nc1cc(C#N)ccc1N1CCC(Oc2ccc(F)cc2F)CC1 [Example 207, N-(5-cyano-2-(4-(2,4-difluorophenoxy)piperidin-1-yl)phenyl)-3,5-difluoro-2-methoxybenzamide]
6.8 | CCn1nc(C(=O)Nc2cc(C#N)ccc2N2CCC(Oc3ccc(F)cc3F)CC2)cc1C [Example 143, N-(5-cyano-2-(4-(2,4-difluorophenoxy)piperidin-1-yl)phenyl)-1-ethyl-5-methyl-1H-pyrazole-3-carboxamide]
6.3 | COc1ccc(F)c(F)c1C(=O)Nc1cc(C#N)ccc1N1CCC(Oc2ccc(F)cc2F)CC1 [Example 192, N-(5-cyano-2-(4-(2,4-difluorophenoxy)piperidin-1-yl)phenyl)-2,3-difluoro-6-methoxybenzamide]
5.9 | COc1ncc(Cl)cc1C(=O)Nc1cc(C#N)ccc1N1CCC(Oc2ccc(F)cc2F)CC1 [Example 193, 5-chloro-N-(5-cyano-2-(4-(2,4-difluorophenoxy)piperidin-1-yl)phenyl)-2-methoxynicotinamide]
6.9 | COc1ncccc1C(=O)Nc1cc(C#N)ccc1N1CCN(Cc2ccccc2F)CC1 [Example 239, N-(5-cyano-2-(4-(2-fluorobenzyl)piperazin-1-yl)phenyl)-2-methoxynicotinamide]
7.1 | COc1ncccc1C(=O)Nc1cc(C#N)c(C#N)cc1N1CCC(Oc2ccc(F)cc2F)CC1 [Example 271]
